Test results published in PMC11178805, “Ligand-based design of [^18F]OXD-2314 for PET imaging in non-Alzheimer’s disease tauopathies” (Nature Communications, 2024).
“And” between values parts separate entries of the source, which are not always exact repeats. Equal values may be shown once.

Assays:
[1] = molecular target: T1, 4R-tau aggregates in PSP tissue (Homo sapiens, UniProt P10636); experiment: Competition binding vs [^3H]OXD-2314 in PSP tissue
T1 construct: tissue Neurodegenerative Disease Brain Bank at UCSF
Procedure: (§1) Fresh frozen, autopsy-confirmed human PD anterior cingulate cortex brain tissue blocks (1 cm^3) were obtained from Dr. Thomas Beach at Banner/Sun Health AZ with funding from the Michael J. Fox Foundation and contained frequent α-synuclein aggregates and no other detectable aggregated amyloid species. The frozen tissue blocks were prepared for the binding assays as previously described[47],[48], except that equal quantities of the homogenates of three AD brains (AD1-AD3, Table S1) were pooled, as were homogenates from three PSP brains (PSP1-PSP3), three CBD brains (CBD1-CBD3), three Pick’s brains (PiD1-PiD3), and 4 PD brains (PD1-PD4) in order to help minimize the inter-subject variability within the different neuropathological groups. Individual subcortical brain tissues from a PSP subject (PSP4) and a CBD subject (CBD4), as well as with the middle frontal cortex of a control subject, were prepared for the binding assays as previously described[47],[48].
(§2) The equilibrium inhibition constant (Ki) values of the unlabeled compounds were determined versus tritium-labeled radioligands using published methods.

[2] = molecular target: 3R/4R-tau aggregates in AD tissue (Homo sapiens, UniProt P10636); experiment: Competition binding vs [^3H]OXD-2115 in AD tissue homogenates; settings: vs [^3H]OXD-2115, AD tissue homogenates, n = 1
Procedure: as §1, §2

[3] = molecular target: T2, 4R-tau aggregates in CBD tissue (Homo sapiens, UniProt P10636); experiment: Competition binding vs [^3H]OXD-2314 in CBD tissue
T2 construct: tissue Neurodegenerative Disease Brain Bank at UCSF; host or cells: human CBD brain, middle frontal gyrus (pool of three) or putamen (one subject)
Procedure: as §1, §2

[4] = Mouse pharmacology (DMPK): plasma and brain concentrations, brain-to-plasma ratios after i.v. administration; assay type: in vivo, mice
Procedure: Ex vivo evaluation of the BBB permeability of OXD-2314 was performed by measuring the brain-to-plasma ratios in mice. Compound concentrations in plasma (0.03 h, 0.17 h, 0.5 h, 1 h, and 2 h; n = 3 per timepoint) were compared with concentrations in brain (0.03 h, 0.17 h, 1 h, and 2 h; n = 3 per timepoint) for both OXD-2115 and OXD-2314. The total brain-to-plasma concentration ratios were 1.7 for OXD-2314 and 0.1 for OXD-2115. The free concentration ratio for brain-to-plasma was 0.6 for OXD-2314 and 0.002 for OXD-2115 (Figs. S3–S8 and Tables S2, S3).

[5] = Radiometabolite analysis in rat plasma and brain homogenates; assay type: in vivo, rat (Sprague-Dawley); settings: for parent fraction of radioactivity in brain homogenates: rats
Procedure: Radiometabolite analysis was performed ex vivo in plasma and brain homogenates from rats (n = 5, 3 female and 2 male) at 30 and 60 min after radiotracer injection (Figs. S11–S16). […] The parent fraction in plasma was 6% at 30 min and 5% at 60 min in the two male rats, respectively, and 32% at 30 min (n = 1) and 18% and 17% at 60 min (n = 2) in the female rats. Different rates of metabolism between male and female rats may have contributed to the differences in kinetics observed in the brain PET scans. No lipophilic radiometabolites were detected in plasma or brain. Parent [^18F]OXD-2314 accounted for 82 ± 7% (n = 2) and 80 ± 5% (n = 3) of the radioactivity in rat brain homogenates by 30 and 60 min post-injection of the radiotracer, respectively. The rats were not perfused with saline immediately prior to sacrifice, so that radiometabolites in blood were trapped in the brain and likely accounted for a portion of the polar radiometabolites found in brain, as cerebral blood volume in rats is approximately 4–5% of total brain volume.
Five adult Sprague-Dawley rats (3 F/2 M, 378 ± 51 g) were used in [^18F]OXD-2314 radiometabolite analysis. Following injection of 46.7 ± 3.3 MBq of the radiotracer through a tail-vein catheter, rats were sacrificed by decapitation 30 min (n = 2) and 60 min (n = 3) post-injection. Trunk blood was collected and centrifuged for 5 min at 2500 × g, and the plasma was collected. Brains were quickly extracted and homogenized with a BeadBug™ (Benchmark Scientific; Sayreville, NJ, USA) in 3.2 mL acetonitrile together with 1 μg of unlabeled parent compound, then 1.6 mL deionized H2O was added and mixed. The homogenate was centrifuged at 12,000 × g for 5 min, and the supernatant was collected. Parent radiotracer was separated from metabolites in plasma and brain extract by column-switching HPLC in a mobile phase of 40/60 CH3CN/100 mM NH4HCO2 (v/v) and analyzed with PowerChrom 2.6.15 (eDAQ).

[6] = logD7.4 by shake-flask method; assay type: physicochemical; settings: pH 7.4
Excerpt: [^18F]OXD-2314 was radiolabeled by an analogous method previously reported for [^18F]OXD-2115 with minor modifications (Fig. 2)[30]. [^18F]OXD-2314 was reliably produced with high radiochemical purity (RCP) ranging from 95-98%, molar activity (Am) of […] (n = 4), and radiochemical yield (RCY) of 8.7 ± 3.7% (not decay-corrected, ndc) in the laboratories in Toronto and was replicated with Am of 349 ± 144 GBq/μmol (n = 4) and RCY of 2.3 ± 1.1% (ndc) in the laboratories in Pittsburgh. The logD7.4 value of [^18F]OXD-2314 was measured as 3.11 ± 0.04 using the shake-flask method.

T2 sequence (P10636 1-441 isoform P10636-8): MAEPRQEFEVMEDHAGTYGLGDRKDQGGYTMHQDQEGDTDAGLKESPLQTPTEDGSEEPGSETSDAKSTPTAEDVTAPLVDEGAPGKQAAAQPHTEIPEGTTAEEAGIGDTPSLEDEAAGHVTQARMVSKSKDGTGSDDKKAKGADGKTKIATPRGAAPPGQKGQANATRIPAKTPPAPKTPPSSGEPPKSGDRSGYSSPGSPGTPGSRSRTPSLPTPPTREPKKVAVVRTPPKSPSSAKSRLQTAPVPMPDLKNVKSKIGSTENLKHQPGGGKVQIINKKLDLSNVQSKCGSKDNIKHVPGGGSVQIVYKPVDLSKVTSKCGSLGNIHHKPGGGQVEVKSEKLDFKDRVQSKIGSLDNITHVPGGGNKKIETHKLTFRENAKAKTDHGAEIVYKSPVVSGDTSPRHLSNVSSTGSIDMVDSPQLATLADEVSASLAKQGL
T1 sequence (P10636 1-441 isoform P10636-8): as above
3R/4R-tau aggregates in AD tissue, sequence (P10636 623-695 limits assumed): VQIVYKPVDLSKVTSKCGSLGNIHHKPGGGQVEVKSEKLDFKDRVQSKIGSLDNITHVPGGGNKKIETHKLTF

Structure (SMILES) | Ki [1] [nM] | Ki [2] [nM] | Ki [3] [nM] | Conc. (ng/ml), brain ([4]; mouse brain, t=1 hr after i.v. administration, individual animals, LC-MS/MS 341.7500>256.1500, re-run Brain_2) [ng/mL] | Conc. (ng/ml), brain ([4]; mouse brain, t=2 hr after i.v. administration, individual animals, LC-MS/MS 341.7500>256.1500, re-run Brain_2) | Kp,uu (unbound brain-to-plasma ratio) ([4]; mouse, brain, iv, mice, i.v., AUC brain:plasma, FREE, read-out: free concentration ratio brain-to-plasma) | Kp ([4]; mouse, brain, iv, mice, i.v., AUC brain:plasma, TOTAL, read-out: total brain-to-plasma concentration ratio) | concentration at 1 h ([4]; mouse, brain, iv, mouse brain, t=1 hr after i.v. administration, individual animals, LC-MS/MS 341.7500>256.1500, re-run Brain_2, read-out: Conc. (ng/ml), brain) [ng/mL] | % Parent Brain ([5]; female rat, 30 min) [%] | parent fraction in plasma ([5]; female rat, 30 min post-injection) | % Parent Brain ([5]; female rats, 60 min) | parent fraction in plasma ([5]; female rats, 60 min post-injection) | % Parent Brain ([5]; male rat, 30 min) [%] | parent fraction in plasma ([5]; male rat, 30 min post-injection) | % Parent Brain ([5]; male rat, 60 min) [%] | parent fraction in plasma ([5]; male rat, 60 min post-injection) [%] | parent fraction of radioactivity in brain homogenates ([5]; 30 min post-injection, n = 2) [%] | parent fraction of radioactivity in brain homogenates ([5]; 60 min post-injection, n = 3) [%] | logD [6]
COC1CCCN(c2ccc(-c3cc4cc(O)ccc4[nH]3)c(F)n2)C1 (stereo not shown) [OXD-2314, 2-(2-fluoro-6-(3-methoxypiperidin-1-yl)pyridin-3-yl)-1H-indol-5-ol] | 5.8 ± 0.2 | 8.8 | 6.5 ± 0.4 | 0.851 | 0.647 ng/mL and 0.5 ng/mL and 0.3 ng/mL | 0.6 | 1.7 | 1 | – | – | – | – | – | – | – | – | – | – | –
CO[C@H]1CCCN(c2ccc(-c3cc4cc(O)ccc4[nH]3)c([18F])n2)C1 [[^18F]OXD-2314] | – | – | – | – | – | – | – | – | 77.11 | 32% and 32.43% | 81.01% and 83.78% | 18% and 17% and 17.66% and 17.32% | 87.09 | 6% and 5.79% | 74.16 | 5 | 82 ± 7 | 80 ± 5 | 3.11 ± 0.04
